Laboratory results from article PMC10363032 (Cancer Chemotherapy and Pharmacology, 2023).

Experiment: safety and tolerability, adverse events (CTCAE version 4.03) in patients
[1] = after receiving adavosertib, all 30 patients
[2] = probe cocktail plus adavosertib 26 patients, adavosertib alone on days 1 and 2, 30
[3] = probe cocktail plus adavosertib n = 26, adavosertib alone n = 30

Experimental: Safety was appraised throughout the study by the assessment of clinical and laboratory adverse events (AEs; graded by Common Terminology Criteria for Adverse Events [CTCAE], version 4.03), physical examination, and evaluation of vital signs and laboratory data (clinical chemistry and hematology).
Patients were evaluated according to the treatment received.

C=CCn1c(=O)c2cnc(Nc3ccc(N4CCN(C)CC4)cc3)nc2n1-c1cccc(C(C)(C)O)n1 [adavosertib]
Any AE (causally related), any grade (Total (n = 30)): 19 (63.3) Number of patients (%)
Any AE (causally related), grade ≥3 (Total (n = 30)): 6 (20.0) Number of patients (%)
Blood and lymphatic system disorders (causally related), any grade (Total (n = 30)): 4 (13.3) Number of patients (%)
Blood and lymphatic system disorders (causally related), grade ≥3 (Total (n = 30)): 3 (10.0) Number of patients (%)
Blood creatinine increased (causally related), any grade (Total (n = 30)): 1 (3.3) Number of patients (%)
Blood creatinine increased (causally related), grade ≥3 (Total (n = 30)): 0 Number of patients (%)
Decreased appetite (causally related), any grade (Total (n = 30)): 1 (3.3) Number of patients (%)
Decreased appetite (causally related), grade ≥3 (Total (n = 30)): 0 Number of patients (%)
Dehydration (causally related), any grade (Total (n = 30)): 2 (6.7) Number of patients (%)
Dehydration (causally related), grade ≥3 (Total (n = 30)): 1 (3.3) Number of patients (%)
Diarrhea (causally related), any grade (Total (n = 30)): 14 (46.7) Number of patients (%)
Diarrhea (causally related), grade ≥3 (Total (n = 30)): 3 (10.0) Number of patients (%)
Dizziness (causally related), any grade (Total (n = 30)): 2 (6.7) Number of patients (%)
Dizziness (causally related), grade ≥3 (Total (n = 30)): 0 Number of patients (%)
Fatigue (causally related), any grade (Total (n = 30)): 1 (3.3) Number of patients (%)
Fatigue (causally related), grade ≥3 (Total (n = 30)): 0 Number of patients (%)
Flushing (causally related), any grade (Total (n = 30)): 1 (3.3) Number of patients (%)
Flushing (causally related), grade ≥3 (Total (n = 30)): 0 Number of patients (%)
Gastrointestinal disorders (causally related), any grade (Total (n = 30)): 17 (56.7) Number of patients (%)
Gastrointestinal disorders (causally related), grade ≥3 (Total (n = 30)): 3 (10.0) Number of patients (%)
General disorders and administration site conditions (causally related), any grade (Total (n = 30)): 1 (3.3) Number of patients (%)
General disorders and administration site conditions (causally related), grade ≥3 (Total (n = 30)): 0 Number of patients (%)
Hypokalemia (causally related), any grade (Total (n = 30)): 1 (3.3) Number of patients (%)
Hypokalemia (causally related), grade ≥3 (Total (n = 30)): 1 (3.3) Number of patients (%)
Investigations (causally related), any grade (Total (n = 30)): 4 (13.3) Number of patients (%)
Investigations (causally related), grade ≥3 (Total (n = 30)): 0 Number of patients (%)
Metabolism and nutrition disorders (causally related), any grade (Total (n = 30)): 3 (10.0) Number of patients (%)
Metabolism and nutrition disorders (causally related), grade ≥3 (Total (n = 30)): 2 (6.7) Number of patients (%)
Muscle spasms (causally related), any grade (Total (n = 30)): 1 (3.3) Number of patients (%)
Muscle spasms (causally related), grade ≥3 (Total (n = 30)): 0 Number of patients (%)
Musculoskeletal and connective tissue disorders (causally related), any grade (Total (n = 30)): 1 (3.3) Number of patients (%)
Musculoskeletal and connective tissue disorders (causally related), grade ≥3 (Total (n = 30)): 0 Number of patients (%)
Nasal ulcer (causally related), any grade (Total (n = 30)): 1 (3.3) Number of patients (%)
Nasal ulcer (causally related), grade ≥3 (Total (n = 30)): 0 Number of patients (%)
Nausea (causally related), any grade (Total (n = 30)): 6 (20.0) Number of patients (%)
Nausea (causally related), grade ≥3 (Total (n = 30)): 1 (3.3) Number of patients (%)
Nervous system disorders (causally related), any grade (Total (n = 30)): 2 (6.7) Number of patients (%)
Nervous system disorders (causally related), grade ≥3 (Total (n = 30)): 0 Number of patients (%)
Neutropenia (causally related), any grade (Total (n = 30)): 2 (6.7) Number of patients (%)
Neutropenia (causally related), grade ≥3 (Total (n = 30)): 2 (6.7) Number of patients (%)
Pancreatitis (causally related), any grade (Total (n = 30)): 1 (3.3) Number of patients (%)
Pancreatitis (causally related), grade ≥3 (Total (n = 30)): 1 (3.3) Number of patients (%)
Renal and urinary disorders (causally related), any grade (Total (n = 30)): 1 (3.3) Number of patients (%)
Renal and urinary disorders (causally related), grade ≥3 (Total (n = 30)): 1 (3.3) Number of patients (%)
Respiratory, thoracic and mediastinal disorders (causally related), any grade (Total (n = 30)): 1 (3.3) Number of patients (%)
Respiratory, thoracic and mediastinal disorders (causally related), grade ≥3 (Total (n = 30)): 0 Number of patients (%)
Stomatitis (causally related), any grade (Total (n = 30)): 1 (3.3) Number of patients (%)
Stomatitis (causally related), grade ≥3 (Total (n = 30)): 0 Number of patients (%)
Thrombocytopenia (causally related), any grade (Total (n = 30)): 2 (6.7) Number of patients (%)
Thrombocytopenia (causally related), grade ≥3 (Total (n = 30)): 0 Number of patients (%)
Vascular disorders (causally related), any grade (Total (n = 30)): 1 (3.3) Number of patients (%)
Vascular disorders (causally related), grade ≥3 (Total (n = 30)): 0 Number of patients (%)
Vomiting (causally related), any grade (Total (n = 30)): 7 (23.3) Number of patients (%)
Vomiting (causally related), grade ≥3 (Total (n = 30)): 1 (3.3) Number of patients (%)
Weight decreased (causally related), any grade (Total (n = 30)): 3 (10.0) Number of patients (%)
Weight decreased (causally related), grade ≥3 (Total (n = 30)): 0 Number of patients (%)
patients with treatment-related vomiting (adavosertib alone n = 30): 20.0%
patients reporting serious AEs (SAEs) considered related to adavosertib (adavosertib alone on days 1 and 2, two SAEs: acute kidney injury and pancreatitis, led to discontinuation): One
patients with treatment-related adverse events [1]: 63%
patients with treatment-related adverse events grade ≥ 3 [1]: 20%
patients with CTCAE grade ≥ 3 acute kidney injury (any cause): 3.3%
patients with CTCAE grade ≥ 3 dehydration (any cause): 3.3%
patients with CTCAE grade ≥ 3 diarrhea (any cause): 10.0%
patients with CTCAE grade ≥ 3 hypokalemia (any cause): 3.3%
patients with CTCAE grade ≥ 3 hypoxia (any cause): 3.3%
patients with CTCAE grade ≥ 3 nausea (any cause): 3.3%
patients with CTCAE grade ≥ 3 necrotizing soft-tissue infection (any cause): 3.3%
patients with CTCAE grade ≥ 3 neutropenia (any cause): 3.3%
patients with CTCAE grade ≥ 3 pancreatitis (any cause): 3.3%
patients with CTCAE grade ≥ 3 small-intestinal obstruction (any cause): 3.3%
patients with CTCAE grade ≥ 3 thrombocytopenia (any cause): 3.3%
patients with CTCAE grade ≥ 3 vomiting (any cause): 3.3%
patients who experienced AEs (cocktail alone 33 patients, probe cocktail plus adavosertib 26, adavosertib alone on days 1 and 2, 30): 53.3%
patients who discontinued treatment because of AEs (grade 3 diarrhea (related to adavosertib), grade 3 small-bowel obstruction (not related)): Two
patients with adverse events of CTCAE grade ≥ 3 [2]: 16.7%
patients with treatment-related AEs [2]: 36.7%
patients with treatment-related diarrhea [3]: 33.3%
patients with treatment-related nausea [3]: 10.0%
